Source: patent US6946447B2, “MDM2-specific antisense oligonucleotides” (Hybridon, Inc., priority 1997, dated 2005)
Read-outs that look alike come from different tables or passages of the source.

Tests used:
LS174T cells = experiment: LS174T cell growth by trypan blue viability staining; assay type: cell-based, human; conditions: 72 hr, Lipofectin 7 μg/ml, read-out: IC50, inhibition of tumor cell growth
From the text: Chemicals and Reagents. Cell culture media and phosphate-buffered saline (PBS) were obtained from Sigma Chemical Co. (St. Louis, Mo.). Fetal bovine serum (FBS), antibodies against p53 and p21, Lipofectin, trypsin, penicillin-streptomycin, and trypan blue stain were purchased from GIBCO-BRL (Grand Island, N.Y.). The anti-human-MDM2 monoclonal antibody (Chen L. et al., Proc Natl Acad Sci USA, 95: 195-200, 1998; Chen L. et al., Mol. Med. 5: 21-34, 1999) was kindly provided by J. Chen (Moffitt Cancer Center, Tampa, Fla.). Chemotherapeutic agents adriamycin and 5-fluorouracil (5-FU) were obtained from Sigma. […] The MDM2, p53 and p21 levels in cultured cells were analyzed by using the methods described previously (earlier (Chen L. et al., Proc Natl Acad Sci USA, 95: 195-200, 1998; Chen L. et al., Mol. Med. 5: 21-34, 1999; Wang H. et al., Int J. Oncol. 15: 653-660, 1999). In brief, cell lysate containing identical amounts of total protein were fractionated by SDS-PAGE and transferred to Bio-Rad Trans-Blot nitrocellulose membranes (Bio-Rad Laboratories, Hercules, Calif., USA). The nitrocellulose membrane was then incubated with blocking buffer (PBS containing 0.1% Tween 20 and 5% non-fat milk) for 1 hr at room temperature and washed with the washing buffer (PBS containing 0. […]

[1] = tested on: MDM2, p53 and p21 protein levels in LS174T cells; experiment: Western blot of MDM2, p53 and p21 in LS174T cells; assay type: cell-based, human; conditions: 400 nM Oligo 24 hr
From the text: (§1) Chemicals and Reagents. Cell culture media and phosphate-buffered saline (PBS) were obtained from Sigma Chemical Co. (St. Louis, Mo.). Fetal bovine serum (FBS), antibodies against p53 and p21, Lipofectin, trypsin, penicillin-streptomycin, and trypan blue stain were purchased from GIBCO-BRL (Grand Island, N.Y.). The anti-human-MDM2 monoclonal antibody (Chen L. et al., Proc Natl Acad Sci USA, 95: 195-200, 1998; Chen L. et al., Mol. Med. 5: 21-34, 1999) was kindly provided by J. Chen (Moffitt Cancer Center, Tampa, Fla.). Chemotherapeutic agents adriamycin and 5-fluorouracil (5-FU) were obtained from Sigma. Natural product topoisomerase I inhibitor 10-hydroxycamptothecin (HCPT) was obtained from the Midwest Co. (Beijing, China) with the purity of the drug being greater than 98% (Zhang R. et al., Cancer Chemother Pharm 41: 257-267, 1998). Cell Culture. The tumor cell lines, LS174T and DLD-1 were obtained from the American Type Culture Collection (Rockville, Md.) and cultured according to their instructions. LS 174T cells were cultured in MEM with 0.1 mM nonessential amino acids and Earle's balanced salt solution containing 10% FBS and DLD-1 cells in RPMI 1640 medium containing 10% FBS. All media included 1% penicillin/streptomycin. […] Cells were incubated with Oligos AS or ASM at various concentrations for 72 hr, in the presence of Lipofectin (7 μg/ml). […] Western Blot Analysis. The MDM2, p53 and p21 levels in cultured cells were analyzed by using the methods described previously (earlier (Chen L. et al., Proc Natl Acad Sci USA, 95: 195-200, 1998; Chen L. et al., Mol. Med. 5: 21-34, 1999; Wang H. et al., Int J. Oncol. 15: 653-660, 1999). In brief, cell lysate containing identical amounts of total protein were fractionated by SDS-PAGE and transferred to Bio-Rad Trans-Blot nitrocellulose membranes (Bio-Rad Laboratories, Hercules, Calif., USA). The nitrocellulose membrane was then incubated with blocking buffer (PBS containing 0.1% Tween 20 and 5% non-fat milk) for 1 hr at room temperature and washed with the washing buffer (PBS containing 0. 1% Tween 20) for 5 min twice. The membrane was incubated with primary (anti-MDM2, anti-p53, or anti-p21) antibody overnight at 4° C. or for 1 hr at room temperature with gentle shaking. The membrane was washed with the washing buffer for 15 min and then twice for 5 min, and then incubated with 1:5000 diluted goat anti-mouse IgG-horse radish peroxidase conjugated antibody (Bio-Rad, Hercules, Calif.) for 1 hr at room temperature. After washing as described above the protein of interest was detected by ECL reagents from Amersham (Arlington Height, Ill.). Results. LS174T Model. In vitro inhibition of MDM2 expression by Oligo AS was shown in a sequence-specific, increasing dose-dependent manner (FIG. 19). […] Control oligonucleotide, Oligo ASM had no effect on MDM2, p53 or p21 protein levels at 500 nM, the highest concentration tested in the study.
Following in vitro combination treatment of Oligos and chemotherapeutic agents HCPT, adriamycin, and 5-FU, the protein levels of MDM2, p53 and p21 were determined in LS174T cells. Cells were incubated with 400 nM Oligo in the presence of Lipofectin for 24 hr, followed by addition of various concentrations of chemotherapeutic agents and incubation for additional 24 hr.

[2] = tested on: human colon cancer LS174T xenografts; experiment: Tumor growth in nude mice bearing LS174T xenografts
JAR xenografts = experiment: Tumor regression and survival of nude mice bearing large JAR xenografts, intratumoral injection; conditions: JAR xenografts (average 2,000 mg)
Protocol: Administration was by direct injection into the tupors at the designated daily dose, 5 doses/week. Anti-MDM2 oligonucleotide: AS5-2H (5 mg/kg/day, 5 injections); anti-MDM2 oligonucleotide (5 mg/kg)+HCPT (3 mg/kg); control (saline); HCPT: 3 mg/kg/day.
The tumor cell lines, SJSA and JAR, were cultured under the same conditions as in in vitro studies (Chen et al., PNAS 1998, supra). Human cancer xenograft models were established using the methods reported previously (Cai et al., Intl. J. Oncol. 10:953-960, 1997; and Zhang et al., Intl. J. Oncol. 10:1147-1156, 1997). Female nude mice (five week old) were used in the study. Cultured SJSA and JAR cells were harvested from the monolayer cultures, washed twice with DMEMF-12 HAM medium, resuspended in DMEM, and injected s.c. (20×10^6 cells, total volume 0.2 ml) into the left inguinal area of the mice. The animals were monitored by general clinical observation, body weight, and tumor growth. […] Animals with JAR cells were treated when the tumor size reached 2,000 mg. The animals bearing human cancer carcinoma xenografts were randomly divided into treatment groups and a control group (6-10 mice/group). Oligonucleotides dissolved in physiological saline (0.9% NaCl) were administered by ip injection at various daily doses, 5 consecutive days per week. The control group received physiological saline only. […]

[3] = tested on: MDM2, p53 and p21 protein levels in DLD-1 cells; experiment: Western blot of MDM2, p53 and p21 in DLD-1 cells; assay type: cell-based, human; conditions: for inhibitory effect on MDM2 expression: Lipofectin
From the text: as §1
Following in vitro combination treatment of Oligos and chemotherapeutic agents HCPT, adriamycin, and 5-FU, the protein levels of MDM2, p53 and p21 were determined in DLD-1 cells. Cells were incubated with 200 nM Oligo in the presence of Lipofectin for 24 hr, followed by addition of various concentrations of chemotherapeutic agents and incubation for an additional 24 hr.

[4] = tested on: MDM2, p53 and p21 protein levels in LS174T cells; experiment: Western blot of MDM2, p53 and p21 in LS174T cells; assay type: cell-based, human; conditions: 24 hr, Lipofectin
[5] = mice bearing LS174T xenografts
MDM2 = conditions: SJSA and JAR cells; cited from earlier work
[6] = mice bearing DLD-1 xenografts
SJSA xenografts = experiment: Tumor growth in nude mice bearing SJSA xenografts; assay type: in vivo; conditions: SJSA xenografts (average 150 mg), ip, 5 doses/week
Protocol: 51:173-182, 1996). […] The control group received physiological saline only.
Tumor growth was monitored using the methods previously reported (74,75). Tumor weight (g) was calculated by the formula, ½·a·b^2, where “a” is the long diameter (cm) and “b” is the short diameter (cm) of the tumor. At the end of the experiment, tumors were removed, weighed, and then fixed for pathology evaluation.

In the case of “Oligo AS: 20-mer mixed-backbone phosphorothioate oligonucleotide with 2′-O-methyl ends, 5′UGACACCTGTTCTCACUCAC-3′; SEQ ID NO:47 (mixed phosphorothioate backbone with 2'-O-methyl ends, pattern not given here)”, the IC50 (LS174T cells) is reported as 323 nM, the “MDM2, p53 and p21 protein levels, oligo pre-treatment then 5-FU” value ([1]; then 5-FU 24 hr) is reported as “MDM2 expression was inhibited, resulting in significant elevated p53 and p21 levels” and the “MDM2, p53 and p21 protein levels, oligo pre-treatment then HCPT” value ([1]; then HCPT 24 hr) is reported as “MDM2 expression was inhibited, resulting in significant elevated p53 and p21 levels”. For the same substance, the “MDM2, p53 and p21 protein levels, oligo pre-treatment then adriamycin” value ([1]; then adriamycin 24 hr) was “MDM2 expression was inhibited, resulting in significant elevated p53 and p21 levels”, the “xenograft pathology (tumor histology)” value [2] was “patches of collagenous connective tissues replacing tumor and necropurulent, ulcerative changes” and the “effect on in vivo tumor growth” value ([2]; daily ip dose 20 mg/kg) was “significant inhibitory effect”. The “Ratio (%) of % T:C with oligo to % T:C without oligo ([2]/[1] or [3]/[1])” value ([2]; day 3) was 51%, the “Growth ratio % T:C (mean tumor mass of treated group vs saline control)” value (shortened to “Growth ratio % T:C”) ([2]; day 3, oligo 20, HCPT 3, 5-FU 10 mg/kg/day) was 50.9% and the “Ratio (%) of % T:C with oligo to % T:C without oligo ([2]/[1] or [3]/[1])” value ([2]; day 6) was 44%. The “Growth ratio % T:C” value ([2]; day 6, oligo 20, HCPT 3, 5-FU 10 mg/kg/day) was 44.1%, the “Ratio (%) of % T:C with oligo to % T:C without oligo ([2]/[1] or [3]/[1])” value ([2]; day 9) was 30% and the “Growth ratio % T:C” value ([2]; day 9, oligo 20, HCPT 3, 5-FU 10 mg/kg/day) was 29.9%. The “Ratio (%) of % T:C with oligo to % T:C without oligo ([2]/[1] or [3]/[1])” value ([2]; day 12) was 34%, the “Growth ratio % T:C” value ([2]; day 12, oligo 20, HCPT 3, 5-FU 10 mg/kg/day) was 34.3% and the “Ratio (%) of % T:C with oligo to % T:C without oligo ([2]/[1] or [3]/[1])” value ([2]; day 15) was 45%. The “Growth ratio % T:C” value ([2]; day 15, oligo 20, HCPT 3, 5-FU 10 mg/kg/day) was 45.2%, the “Ratio (%) of % T:C with oligo to % T:C without oligo ([2]/[1] or [3]/[1])” value ([2]; day 18) was 37% and the “Growth ratio % T:C” value ([2]; day 18 (end of experiment), oligo 20, HCPT 3, 5-FU 10 mg/kg/day) was 37.3%. The tumor regression (JAR xenografts; direct injection) was “tumor regression”, the “animals surviving up to 4 weeks” value (JAR xenografts; direct injection into tumors, 5 mg/kg/day) was 20% and the “protein levels of the mutant p53” value [3] was “No significant changes”. The “MDM2, p53 and p21 protein levels, oligo pre-treatment then 5-FU” value ([3]; 200 nM Oligo 24 hr, then 5-FU 24 hr) was “MDM2 expression was inhibited, and p21 slightly induced”, the “MDM2 and p21 protein levels, oligo pre-treatment then HCPT” value ([3]; 200 nM Oligo 24 hr, then HCPT 24 hr) was “MDM2 expression was inhibited, resulting in significant elevated p21 levels” and the “MDM2 and p21 protein levels, oligo pre-treatment then adriamycin” value ([3]; 200 nM Oligo 24 hr, then adriamycin 24 hr) was “MDM2 expression was inhibited, resulting in significant elevated p21 levels”. The “inhibitory effect on MDM2 expression” value ([3]; 200 nM, 24 hr) was > 95%, the p21 levels ([3]; 100 nm or higher) was “elevated” and the “inhibitory effect on MDM2 expression” value ([3]; 500 and 1000 nM) was “approximately 80%”. The “inhibition of MDM2 expression” value ([4]; 500 nM) was “greater than 90%”, the “effect on MDM2, p53 and p21 protein levels” value ([4]; up to 500 nM) was “p53 and p21 levels elevated accordingly” and the “Survival Rates of Animals” value ([5]; day 3) was 100%. The “Survival Rates of Animals” value ([5]; day 6) was 100%, the “Survival Rates of Animals” value ([5]; day 9) was 100% and the “Survival Rates of Animals” value ([5]; day 12) was 100%. For the same substance, the “Survival Rates of Animals” value ([5]; day 15) was 100%, the “Survival Rates of Animals” value ([5]; day 18) was 100% and the MDM2 expression (MDM2) was “specifically inhibits MDM2 expression”. The “Survival Rates of Animals” value ([6]; day 3) was 100%, the “Survival Rates of Animals” value ([6]; day 6) was 100% and the “Survival Rates of Animals” value ([6]; day 9) was 100%. For the same substance, the “Survival Rates of Animals” value ([6]; day 12) was 100%, the “Survival Rates of Animals” value ([6]; day 15) was 100% and the “Survival Rates of Animals” value ([6]; day 18) was 100%. For the same substance, the “Survival Rates of Animals” value ([6]; day 21) was 100% and the “effect on tumor growth” value (SJSA xenografts) was “dose-dependent effect”.
